Target: myeloperoxidase (MPO) (Homo sapiens, UniProt P05164)
Assay: microscale thermophoresis
Assay type: binding

Sequence of myeloperoxidase (MPO) (P05164 165-273): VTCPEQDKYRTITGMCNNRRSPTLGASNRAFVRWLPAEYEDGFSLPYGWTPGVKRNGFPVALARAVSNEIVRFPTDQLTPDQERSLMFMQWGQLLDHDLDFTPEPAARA
Sequence of myeloperoxidase (MPO) (P05164 279-745): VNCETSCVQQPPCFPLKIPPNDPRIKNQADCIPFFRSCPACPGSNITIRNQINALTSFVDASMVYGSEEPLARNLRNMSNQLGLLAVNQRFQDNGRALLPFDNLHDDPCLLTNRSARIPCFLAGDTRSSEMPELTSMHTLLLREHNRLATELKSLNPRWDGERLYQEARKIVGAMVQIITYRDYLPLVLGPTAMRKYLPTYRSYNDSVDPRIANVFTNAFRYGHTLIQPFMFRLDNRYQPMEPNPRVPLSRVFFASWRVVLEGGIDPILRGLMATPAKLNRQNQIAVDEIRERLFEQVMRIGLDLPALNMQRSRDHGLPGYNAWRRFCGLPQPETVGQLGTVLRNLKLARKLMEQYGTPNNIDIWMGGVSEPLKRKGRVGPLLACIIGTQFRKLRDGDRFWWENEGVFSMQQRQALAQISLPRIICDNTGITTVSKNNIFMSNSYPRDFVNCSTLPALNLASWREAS

Work on `c1ccc2[nH]ccc2c1` [indole, 1H-indole] yielded a Kd of 272 ± 77.4 µM.

— paper PMC8078834 (FASEB journal : official publication of the Federation of …, 2021)
